Experimental data from patent publication US20220054513A1, “COMBINATION COMPOSITIONS COMPRISING A BETA-LACTAMASE INHIBITOR” (VenatoRx Pharmaceuticals, Inc., priority 2018, published 2022).

System: Acinetobacter baumannii-calcoaceticus species complex clinical isolates
Assay: MIC of triple combinations (Compound 1, sulbactam, meropenem or cefepime), 141 clinical isolates
Type: cell-based
Details: Cmpd 1 at 4 μg/mL in combinations
Source text: For a more comprehensive assessment of the ability of test compounds to potentiate sulbactam in triple combinations with β-lactams additional MIC assays were utilized.

CC1(C)[C@H](C(=O)O)N2C(=O)C[C@H]2S1(=O)=O [SUL, Sulbactam]
MIC (Acinetobacter, strain 1014815): 64 µg/mL
MIC (Acinetobacter, strain 1014866): 32 µg/mL
MIC (Acinetobacter, strain 1014878): 32 µg/mL
MIC (Acinetobacter, strain 1014890): 32 µg/mL
MIC (Acinetobacter, strain 1016545): 16 µg/mL
MIC (Acinetobacter, strain 1016836): 32 µg/mL
MIC (Acinetobacter, strain 1017679): 32 µg/mL
MIC (Acinetobacter, strain 1018109): 4 µg/mL
MIC (Acinetobacter, strain 1018801): 64 µg/mL
MIC (Acinetobacter, strain 1018802): 64 µg/mL
MIC (Acinetobacter, strain 1018804): 32 µg/mL
MIC (Acinetobacter, strain 1018806): 64 µg/mL
MIC (Acinetobacter, strain 1018807): 32 µg/mL
MIC (Acinetobacter, strain 1018851): 64 µg/mL
MIC (Acinetobacter, strain 1023034): 16 µg/mL
MIC (Acinetobacter, strain 1023074): 32 µg/mL
MIC (Acinetobacter, strain 1023207): 16 µg/mL
MIC (Acinetobacter, strain 1023329): 16 µg/mL
MIC (Acinetobacter, strain 1024119): 32 µg/mL
MIC (Acinetobacter, strain 1024215): 16 µg/mL
MIC (Acinetobacter, strain 1026990): 16 µg/mL
MIC (Acinetobacter, strain 1026992): 16 µg/mL
MIC (Acinetobacter, strain 1027234): 8 µg/mL
MIC (Acinetobacter, strain 1027590): 32 µg/mL
MIC (Acinetobacter, strain 1027603): 8 µg/mL
MIC (Acinetobacter, strain 1027748): 8 µg/mL
MIC (Acinetobacter, strain 1028193): 64 µg/mL
MIC (Acinetobacter, strain 1029770): 32 µg/mL
MIC (Acinetobacter, strain 1029913): 16 µg/mL
MIC (Acinetobacter, strain 1030427): 16 µg/mL
MIC (Acinetobacter, strain 1030928): 64 µg/mL
MIC (Acinetobacter, strain 1030945): 32 µg/mL
MIC (Acinetobacter, strain 1031136): 32 µg/mL
MIC (Acinetobacter, strain 1031167): 64 µg/mL
MIC (Acinetobacter, strain 1031177): 16 µg/mL
MIC (Acinetobacter, strain 1031191): 16 µg/mL
MIC (Acinetobacter, strain 1031211): 32 µg/mL
MIC (Acinetobacter, strain 1031238): 32 µg/mL
MIC (Acinetobacter, strain 1031566): 32 µg/mL
MIC (Acinetobacter, strain 1032669): 16 µg/mL
MIC (Acinetobacter, strain 1032761): 64 µg/mL
MIC (Acinetobacter, strain 1033340): 16 µg/mL
MIC (Acinetobacter, strain 1033979): 64 µg/mL
MIC (Acinetobacter, strain 1034048): 32 µg/mL
MIC (Acinetobacter, strain 1034880): 32 µg/mL
MIC (Acinetobacter, strain 1034912): 32 µg/mL
MIC (Acinetobacter, strain 1034913): 32 µg/mL
MIC (Acinetobacter, strain 1034916): 64 µg/mL
MIC (Acinetobacter, strain 1034925): 32 µg/mL
MIC (Acinetobacter, strain 1034931): 16 µg/mL
MIC (Acinetobacter, strain 1034951): 32 µg/mL
MIC (Acinetobacter, strain 1034962): 32 µg/mL
MIC (Acinetobacter, strain 1035144): 32 µg/mL
MIC (Acinetobacter, strain 1035788): 32 µg/mL
MIC (Acinetobacter, strain 1035794): 64 µg/mL
MIC (Acinetobacter, strain 1035808): 32 µg/mL
MIC (Acinetobacter, strain 1035825): 32 µg/mL
MIC (Acinetobacter, strain 1035900): 32 µg/mL
MIC (Acinetobacter, strain 1036023): 64 µg/mL
MIC (Acinetobacter, strain 1036045): 32 µg/mL
MIC (Acinetobacter, strain 1036068): 32 µg/mL
MIC (Acinetobacter, strain 1036734): 32 µg/mL
MIC (Acinetobacter, strain 1036768): 32 µg/mL
MIC (Acinetobacter, strain 1036781): 32 µg/mL
MIC (Acinetobacter, strain 1036859): 32 µg/mL
MIC (Acinetobacter, strain 1036882): 32 µg/mL
MIC (Acinetobacter, strain 1036921): 64 µg/mL
MIC (Acinetobacter, strain 1037193): 16 µg/mL
MIC (Acinetobacter, strain 1037211): 64 µg/mL
MIC (Acinetobacter, strain 1037251): 32 µg/mL
MIC (Acinetobacter, strain 1037256): 16 µg/mL
MIC (Acinetobacter, strain 1037294): 64 µg/mL
MIC (Acinetobacter, strain 1037462): 16 µg/mL
MIC (Acinetobacter, strain 1037593): 32 µg/mL
MIC (Acinetobacter, strain 1037618): 64 µg/mL
MIC (Acinetobacter, strain 1037714): 8 µg/mL
MIC (Acinetobacter, strain 1037731): 16 µg/mL
MIC (Acinetobacter, strain 1037732): 16 µg/mL
MIC (Acinetobacter, strain 1037738): 16 µg/mL
MIC (Acinetobacter, strain 1037747): 32 µg/mL
MIC (Acinetobacter, strain 1038418): 16 µg/mL
MIC (Acinetobacter, strain 1038439): 16 µg/mL
MIC (Acinetobacter, strain 1039502): 64 µg/mL
MIC (Acinetobacter, strain 1039514): 16 µg/mL
MIC (Acinetobacter, strain 1039515): 32 µg/mL
MIC (Acinetobacter, strain 1039518): 16 µg/mL
MIC (Acinetobacter, strain 1040900): 8 µg/mL
MIC (Acinetobacter, strain 1040901): 64 µg/mL
MIC (Acinetobacter, strain 1040916): 32 µg/mL
MIC (Acinetobacter, strain 1042182): 16 µg/mL
MIC (strain 1002960): 128 µg/mL
MIC (strain 1010331): 128 µg/mL
MIC (strain 1010950): 128 µg/mL
MIC (strain 1019086): 128 µg/mL
MIC (strain 1023031): 128 µg/mL
MIC (strain 1037479): 128 µg/mL
MIC (strain 1040917): 128 µg/mL
